Assay results published in the CheMixHub ionic liquid set.
± gives the uncertainty stated by the source.

Test: xn = mol fraction of the nth substance listed

CCCn1cc[n+](C)c1C.F[B-](F)(F)F + O
101 kPa
Details	viscosity [mPa·s]
298.15 K, x2 = 0.1932	134.9 ± 9.3
303.15 K, x2 = 0.1932	103.3 ± 5.3
303.15 K, x2 = 0.3944	40.4 ± 1.1
303.15 K, x2 = 0.4987	25.5 ± 0.68
308.15 K, x2 = 0.2833	53.2 ± 1.2
308.15 K, x2 = 0.3944	32.95 ± 0.88
308.15 K, x2 = 0.5995	13.58 ± 0.37
318.15 K, x2 = 0.0939	78.6 ± 2.9
318.15 K, x2 = 0.1932	52.1 ± 1.2
333.15 K, x2 = 0.0939	42.5 ± 1.1
333.15 K, x2 = 0.5995	6.65 ± 0.19
333.15 K, x2 = 0.6985	4.37 ± 0.13
343.15 K, x2 = 0.0939	29.96 ± 0.8

CCCCCC[n+]1ccn(C)c1.[Cl-] + CCCCCC[n+]1ccn(C)c1.F[B-](F)(F)F
101 kPa
Details	electrical conductivity [S/m]	viscosity [mPa·s]
303 K, x1 = 0.2	0.0846 ± 0.0068	–
303 K, x1 = 0.4	0.0415 ± 0.0033	–
303 K, x1 = 0.6	0.0196 ± 0.0016	–
303 K, x1 = 0.8	0.00783 ± 0.00063	–
303 K, x1 = 1	0.00318 ± 0.00027	–
303.15 K, x1 = 0.2	–	380 ± 120
303.15 K, x1 = 0.4	–	800 ± 250
303.15 K, x1 = 0.6	–	1835 ± 590
308 K, x1 = 0.2	0.113 ± 0.0091	–
308 K, x1 = 0.4	0.0581 ± 0.0047	–
308 K, x1 = 0.6	0.029 ± 0.0024	–
308 K, x1 = 0.8	0.0123 ± 0.001	–
308 K, x1 = 1	0.00531 ± 0.00044	–
308.15 K, x1 = 0.2	–	275 ± 84
308.15 K, x1 = 0.4	–	550 ± 170
308.15 K, x1 = 0.6	–	1194 ± 380
313 K, x1 = 0.2	0.147 ± 0.012	–
313 K, x1 = 0.4	0.0791 ± 0.0064	–
313 K, x1 = 0.6	0.0413 ± 0.0034	–
313 K, x1 = 0.8	0.0186 ± 0.0015	–
313 K, x1 = 1	0.00852 ± 0.0007	–
313.15 K, x1 = 0.2	–	204 ± 62
313.15 K, x1 = 0.4	–	390 ± 120
313.15 K, x1 = 0.6	–	810 ± 250
313.15 K, x1 = 0.8	–	1892 ± 610
318 K, x1 = 0.2	0.19 ± 0.015	–
318 K, x1 = 0.4	0.106 ± 0.0086	–
318 K, x1 = 0.6	0.0575 ± 0.0047	–
318 K, x1 = 0.8	0.0272 ± 0.0022	–
318 K, x1 = 1	0.0133 ± 0.0011	–
318.15 K, x1 = 0.2	–	156 ± 47
318.15 K, x1 = 0.4	–	283 ± 86
318.15 K, x1 = 0.6	–	560 ± 170
318.15 K, x1 = 0.8	–	1237 ± 390
323 K, x1 = 0.2	0.24 ± 0.019	–
323 K, x1 = 0.4	0.14 ± 0.011	–
323 K, x1 = 0.6	0.0791 ± 0.0064	–
323 K, x1 = 0.8	0.0392 ± 0.0032	–
323 K, x1 = 1	0.0202 ± 0.0016	–
323.15 K, x1 = 0.2	–	122 ± 37
323.15 K, x1 = 0.4	–	213 ± 65
323.15 K, x1 = 0.6	–	400 ± 120
323.15 K, x1 = 0.8	–	840 ± 260
323.15 K, x1 = 1	–	1879 ± 600
328 K, x1 = 0.2	0.299 ± 0.024	–
328 K, x1 = 0.4	0.179 ± 0.014	–
328 K, x1 = 0.6	0.106 ± 0.0086	–
328 K, x1 = 0.8	0.0547 ± 0.0044	–
328 K, x1 = 1	0.0295 ± 0.0024	–
328.15 K, x1 = 0.2	–	98 ± 29
328.15 K, x1 = 0.4	–	163 ± 49
328.15 K, x1 = 0.6	–	296 ± 90
328.15 K, x1 = 0.8	–	580 ± 180
328.15 K, x1 = 1	–	1228 ± 390
333 K, x1 = 0.2	0.368 ± 0.03	–
333 K, x1 = 0.4	0.227 ± 0.018	–
333 K, x1 = 0.6	0.139 ± 0.011	–
333 K, x1 = 0.8	0.0747 ± 0.0061	–
333 K, x1 = 1	0.0423 ± 0.0034	–
333.15 K, x1 = 0.2	–	78 ± 24
333.15 K, x1 = 0.4	–	128 ± 38
333.15 K, x1 = 0.6	–	220 ± 67
333.15 K, x1 = 0.8	–	420 ± 130
333.15 K, x1 = 1	–	840 ± 260

Cn1cc[n+](C)c1.[Cl-] + O
viscosity [mPa·s], 100 kPa
Details	x1 = 8.631e-05	x1 = 0.0002029	x1 = 0.0003509	x1 = 0.0005369	x1 = 0.0007226	x1 = 0.0008926	x1 = 0.001063	x1 = 0.001349	x1 = 0.001718
278.15 K	1.521 ± 0.011	1.526 ± 0.011	1.529 ± 0.011	1.533 ± 0.011	1.536 ± 0.011	1.538 ± 0.011	1.544 ± 0.012	1.548 ± 0.012	1.553 ± 0.012
283.15 K	1.307 ± 0.01	1.311 ± 0.01	1.313 ± 0.01	1.317 ± 0.01	1.32 ± 0.01	1.323 ± 0.01	1.327 ± 0.01	1.33 ± 0.01	1.334 ± 0.01
288.15 K	1.141 ± 0.009	1.143 ± 0.009	1.145 ± 0.009	1.148 ± 0.009	1.15 ± 0.009	1.152 ± 0.009	1.155 ± 0.009	1.159 ± 0.009	1.164 ± 0.009
293.15 K	1.006 ± 0.008	1.007 ± 0.008	1.009 ± 0.008	1.012 ± 0.008	1.014 ± 0.008	1.016 ± 0.008	1.018 ± 0.008	1.022 ± 0.008	1.026 ± 0.008
298.15 K	0.893 ± 0.007	0.895 ± 0.007	0.897 ± 0.007	0.899 ± 0.007	0.901 ± 0.007	0.903 ± 0.007	0.906 ± 0.007	0.908 ± 0.007	0.912 ± 0.007
303.15 K	0.802 ± 0.006	0.803 ± 0.006	0.804 ± 0.006	0.805 ± 0.006	0.806 ± 0.006	0.808 ± 0.006	0.811 ± 0.006	0.813 ± 0.006	0.817 ± 0.006
308.15 K	0.721 ± 0.006	0.723 ± 0.006	0.724 ± 0.006	0.727 ± 0.006	0.728 ± 0.006	0.73 ± 0.006	0.732 ± 0.006	0.734 ± 0.006	0.737 ± 0.006
313.15 K	0.654 ± 0.005	0.655 ± 0.005	0.657 ± 0.005	0.659 ± 0.005	0.66 ± 0.005	0.662 ± 0.005	0.664 ± 0.005	0.666 ± 0.005	0.669 ± 0.005

CCCCCCC[n+]1ccn(C)c1.O=S(=O)([N-]S(=O)(=O)C(F)(F)F)C(F)(F)F + O
100 kPa, x2 = 0.1971
Details	viscosity [mPa·s]
308.15 K	34.86 ± 0.31
318.15 K	24.33 ± 0.21
323.15 K	20.69 ± 0.18
358.15 K	8.4 ± 0.07

CC[n+]1ccccc1.N#C[N-]C#N + O
100 kPa
Details	electrical conductivity [S/m]	viscosity [mPa·s]
298.15 K, x1 = 0.9411	2.15 ± 0.046	–
298.15 K, x1 = 0.9677	1.94 ± 0.043	–
298.15 K, x2 = 0.01044	–	16.52 ± 0.36
303.15 K, x1 = 0.9542	2.27 ± 0.05	–
303.15 K, x1 = 0.9756	–	13.97 ± 0.3
308.15 K, x1 = 0.9542	2.58 ± 0.057	–
308.15 K, x2 = 0.01044	–	12.55 ± 0.27
313.15 K, x1 = 0.9355	–	10.08 ± 0.22
313.15 K, x1 = 0.9619	–	10.49 ± 0.23
313.15 K, x1 = 0.9677	2.82 ± 0.063	–
313.15 K, x2 = 0.01044	–	11.02 ± 0.24
318.15 K, x1 = 0.9542	3.25 ± 0.072	–
323.15 K, x1 = 0.9756	–	8.27 ± 0.18
328.15 K, x1 = 0.9756	–	7.44 ± 0.16
333.15 K, x1 = 0.9283	4.91 ± 0.11	–
333.15 K, x1 = 0.9411	4.81 ± 0.1	–
333.15 K, x1 = 0.9677	4.61 ± 0.1	–
338.15 K, x1 = 0.9355	–	5.76 ± 0.12
338.15 K, x1 = 0.9485	–	5.86 ± 0.13
338.15 K, x1 = 0.9756	–	6.1 ± 0.1

CC[N+](CC)(CC)CC.[Br-] + CCCCCCCCCCCCCCn1cc[n+](C)c1.[Br-] + O
electrical conductivity [S/m], 101 kPa, frequency 0.001 MHz
Details	298.15 K	308.15 K	318.15 K
x2 = 0, x1 = 1.802e-05	0.0115 ± 0.0007	0.0142 ± 0.00079	0.0177 ± 0.00092
x2 = 0, x1 = 3.604e-05	0.0198 ± 0.0011	0.024 ± 0.0013	0.0294 ± 0.0015
x2 = 0, x1 = 9.009e-05	0.0417 ± 0.0024	0.0509 ± 0.0029	0.0613 ± 0.0034
